These results are taken from patent US20070004736A1, “Imidazole derivative, process for producing the same, and use” (priority 2002, published 2007).

Counter-ions that a name gives are not always drawn.

Chain of human FXa (P00742 235-488 limits assumed): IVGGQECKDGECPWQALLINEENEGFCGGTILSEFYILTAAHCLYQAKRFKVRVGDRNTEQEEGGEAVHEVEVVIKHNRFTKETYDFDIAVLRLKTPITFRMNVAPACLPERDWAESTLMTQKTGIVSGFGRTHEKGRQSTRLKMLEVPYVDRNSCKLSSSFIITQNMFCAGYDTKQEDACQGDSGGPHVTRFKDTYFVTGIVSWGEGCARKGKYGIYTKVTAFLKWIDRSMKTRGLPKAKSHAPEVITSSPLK
Chain of human FXa (P00742 41-179 partner limits assumed): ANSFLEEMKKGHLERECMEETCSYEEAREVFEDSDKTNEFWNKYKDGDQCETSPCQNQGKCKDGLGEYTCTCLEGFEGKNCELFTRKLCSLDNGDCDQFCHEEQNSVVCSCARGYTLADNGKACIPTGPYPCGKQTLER

This test has as its target human FXa (Homo sapiens, UniProt P00742). Description: Human activated blood coagulation factor X (FXa) inhibitory activity. It counts as biochemical. To be noted: concentration at which 50% of FXa activity was inhibited; substrate S-2765, 37° C., absorbance at 405 nm. The protocol:
(1) Human Activated Blood Coagulation Factor X (FXa) Inhibitory Activity
Experimental method: 225 μl of a 0.05 M Tris-HCl buffer (pH 8.3) containing 0.145 M sodium chloride and 2 mM calcium chloride, 5 μl of a sample (a test compound was dissolved in dimethyl sulfoxide) and 10 μl of human FXa (0.3 unit/ml) were added to a 96-well microplate and incubated at 37° C. for about 10 minutes. Then, 10 μl of a substrate (3 mM, S-2765) was added to the plate and incubated at 37° C. for 10 minutes. After stopping the reaction by adding 25 μl of a 50% aqueous acetic acid, a change in absorbance at 405 nm was measured with a spectrophotometer, and the concentration (IC50) at which 50% of FXa activity was inhibited was calculated.
Molecule `Cc1ncc(C2CCN(C(=O)CCS(=O)(=O)c3ccc4cc(Cl)ccc4c3)CC2)n1C` [Example 24, 1-{3-[(6-Chloro-2-naphthyl)sulufonyl]propanoyl}-4-(1,2-dimethyl-1H-imidazol-5-yl)piperidine] gave an IC50 of 31 nM. This counts as double-digit nanomolar.
The result for `Cc1ncc2n1CCN(C1CCN(C(=O)CCS(=O)(=O)c3ccc4cc(Cl)ccc4c3)CC1)C2=O` [Example 38, 7-(1-{3-[(6-Chloro-2-naphthyl)sulfonyl]propanoyl}-4-piperidinyl)-3-methyl-6,7-dihydroimidazo[1,5-a]pyrazin-8(5H)-one] reads 11 nM; that for `Cc1ncn2c1C(=O)N(C1CCN(C(=O)CCS(=O)(=O)c3ccc4cc(Cl)ccc4c3)CC1)CC2` [Example 39, 7-(1-{3-[(6-Chloro-2-naphthyl)sulfonyl]propanoyl}-4-piperidinyl)-1-methyl-6,7-dihydoroimidazo[1,5-a]pyrazin-8(5H)-one], 11 nM.
The result for `CCc1ncc2n1C(=O)N(C1CCN(C(=O)CCS(=O)(=O)c3ccc4cc(Cl)ccc4c3)CC1)C2` [Example 42, 2-(1-{3-[(6-Chloro-2-naphthyl)sulfonyl]propanoyl}-4-piperidinyl)-5-ethyl-1,2-dihydro-3H-imidazo[1,5-c]imidazol-3-one] reads 7.1 nM; that for `Cc1nc(C)n2c1CN(C1CCN(C(=O)CCS(=O)(=O)c3ccc4cc(Cl)ccc4c3)CC1)C2=O` [Example 72, 2-(1-{3-[(6-Chloro-2-naphthyl)sulfonyl]propanoyl}-4-piperidinyl)-5,7-dimethyl-1,2-dihydro-3H-imidazo[1,5-c]imidazol-3-one], 7.2 nM; that for `Cc1nccn1CCC1CCN(C(=O)CCS(=O)(=O)c2ccc3cc(Cl)ccc3c2)CC1` [Example 102, 1-{3-[(6-Chloro-2-naphthyl)sulfonyl]propanoyl}-4-[2-(2-methyl-1H-imdazol-1-yl)ethyl]piperidine hydrochloride], 43 nM.
`Cc1nc(C)n(CCC2CCN(C(=O)CCS(=O)(=O)c3ccc4cc(Cl)ccc4c3)CC2)c1C` [Example 109, 1-{3-[(6-Chloro-2-naphthyl)sulfonyl]propanoyl}-4-[2-(2,4,5-trimethyl-1H-imidazol-1-yl)ethyl]piperidine] registered a half-maximal inhibitory concentration (IC50) of 45 nM.
